In ChEMBL document CHEMBL4414664, “An Effective Strategy for Identification of Highly Unstable Bacillaenes” (2019):
The source made the active and inactive calls. The calls are words filed in the database; no cut-off is given here.

Key:
[1] = tested on: Salmonella typhimurium; assay: Antibacterial activity against Salmonella typhimurium CCARM 8250 assessed as inhibition zone at 10 mg/ml incubated for 18 hrs by radial diffusion assay; format: functional, organism-based; conditions: Salmonella enterica subsp. enterica serovar Typhimurium
[2] = tested on: Enterococcus faecium; assay: Antibacterial activity against Enterococcus faecium CCARM 5203 assessed as inhibition zone at 10 mg/ml incubated for 18 hrs by radial diffusion assay; format: functional, organism-based
[3] = tested on: Enterococcus faecium; assay: Antibacterial activity against Enterococcus faecium CCARM 5203 assessed as reduction in bacterial growth at 12.5 ug/ml incubated for 18 hrs by serial dilution method relative to control; format: functional
[4] = tested on: Escherichia coli; assay: Antibacterial activity against Escherichia coli CCARM 1009 assessed as inhibition zone at 10 mg/ml incubated for 18 hrs by radial diffusion assay; format: functional, organism-based

Structure (SMILES) | inhibition zone (IZ) [1] | inhibition zone (IZ) [2] | growth inhibition (GI) [3] | inhibition zone (IZ) [4] | inhibition of growth at 12.5 µg/mL ([3]; CCARM 5203, 18 h, read-out: GI)
C/C(=C/C=C/C=C/C(C)C(=O)O)NC(=O)CC(O)\C(C)=C/C=C\C=C(C)\C=C\C=C/C=C/CNC(=O)C(CC(C)C)O[C@@H]1O[C@H](CO)[C@@H](O)[C@H](O)[C@H]1O (some centres undefined) | inactive | inactive | inactive | inactive | –
C/C(=C/C=C/C=C/C(C)C(=O)O[C@@H]1O[C@H](CO)[C@@H](O)[C@H](O)[C@H]1O)NC(=O)CC(O)\C(C)=C/C=C\C=C(C)\C=C\C=C/C=C/CNC(=O)C(O)CC(C)C (some centres undefined) | inactive | inactive | – | inactive | –
C/C(=C/C=C/C=C/C(C)C(=O)O)NC(=O)CC(O)\C(C)=C/C=C\C=C(C)\C=C\C=C\CCCNC(=O)C(CC(C)C)O[C@@H]1O[C@H](CO)[C@@H](O)[C@H](O)[C@H]1O (some centres undefined) | inactive | inactive | – | inactive | –
C/C(=C/C=C/C=C/C(C)C(=O)O)NC(=O)CC(O)\C(C)=C/C=C\C=C(C)\C=C\C=C/C=C/CNC(=O)C(O)CC(C)C (centres undefined) | Active | Active | – | Active | > 80%
C/C(=C/C=C/C=C/C(C)C(=O)O)NC(=O)CC(O)\C(C)=C/C=C\C=C(C)\C=C\C=C/CCCNC(=O)C(O)CC(C)C (centres undefined) | – | – | Active | – | –
C/C(=C/C=C/C=C/C(C)C(=O)O)NC(=O)CC(O)\C(C)=C/C=C\C=C(C)\C=C\C=C/CCCNC(=O)C(CC(C)C)O[C@@H]1O[C@H](CO)[C@@H](O)[C@H](O)[C@H]1O (some centres undefined) | inactive | inactive | inactive | inactive | –
